Test results taken from patent US9862754B2, “Peptide analogs for treating diseases and disorders” (KeyBioscience AG, priority 2011, dated 2018).
Bridge positions count the residues as written; N and C are the ends. Ends that are not written are not given here.

Tests used:
[1] = Example 1: OGTT after 2 weeks of oral treatment in DIO rats; format: in vivo, rat; details: after 2 weeks of treatment, overnight fasting, 1 mg/kg p.o., vs oral vehicle
Protocol: Drug administration by per oral (p.o.) gavage b.i.d. (7-8 am and 3-4 pm) during the study period and as single dose in the morning prior to start of OGTT.
Animals were given 2 g/kg single dose dissolved in milliQ H20.
OGTT Following Overnight Fasting (16 h):
Blood sampling and glycemia were measured by heated tail venous puncture.
Whole blood glucose levels were determined with an ACCU-CHEK® Avia blood glucose meter (Roche Diagnostics, Rotkreuz, Switzerland). Blood (approx 300 ul) is collected in 1 ml MiniCollect K3EDTA plasma-tube (Greiner-Bio-One GmbH, Frickenhausen, Germany), inverted, and stored on ice. Tubes are centrifuged 3000×g (5000 rpm in table centrifuge) for 10 min at 4° C. and plasma obtained. Plasma samples are stored at −20° C. until analysis. A total of ˜2.5 ml blood is obtained during OGTT (˜0.3% of body weight).
Statistical analysis was performed by one-way ANOVA followed by the Dunnett's post hoc test for multiple comparison. Student's t-test was performed to compare two paired group. All analysis was performed using GRAPHPAD PRISM software (GraphPad Prism, San Diego, Calif. U.S.A). Incremental area under curve (iAUC) during OGTT was calculated by the trapezoidal method. A value of P<0.05 was considered to be significant. All data are presented as mean±standard error of the mean (SEM). […]

[2] = Example 7: insulin tolerance test in Zucker Diabetic Fatty rats; format: in vivo, rat; details: ZDF rats; metformin 400 mg/kg/day oral, UGP302 5 μg/kg/day s.c.
Protocol: (§1) To assess the potential of UGP302 (SEQ ID NO: 15) in combination with metformin, Zucker Diabetic Fatty rats were used. At the age of 6 weeks 40 rats were randomized into four groups according to HbA1c, FPG and BW. The groups were: Control (Vehicle), Metformin 400 mg/kg/day, UGP302 5 μg/kg/day and the combination of the two molecules in the stated respective amounts. The treatments were given once daily, and metformin was dosed orally, while UGP302 was given subcutaneously, and the animals were treated for 8 weeks. Fasting blood glucose (FPG) and non-fasted blood glucose (PPG) were monitored biweekly, while HbA1c was measured at termination.
(§2) To further assess the effect of both single doses of each molecule and the combination of these at those same doses, the rats underwent an oral glucose tolerance test (OGTT, FIGS. 23A-23B) and an insulin tolerance test (ITT, FIGS. 24A-24B).

[3] = Example 7: combination with metformin in Zucker Diabetic Fatty rats, FPG, PPG, HbA1c; format: in vivo, rat; details: ZDF rats; 8 weeks once daily; metformin 400 mg/kg/day oral, UGP302 5 μg/kg/day s.c.
Protocol: as §1

[4] = molecular target: T1, T47D cell calcitonin receptors (Homo sapiens, UniProt P30988); assay: Example 4: T47D bioassay, binding of sCT analogs to T47D cell calcitonin receptors (cAMP); format: cell-based; details: T47D cells; sCT set at 100% at 1000 pg/mL; various concentrations
T1 construct: This cell line is known to have the following receptors: calcitonin, androgen, progesterone; endogenous in cells; host or cells: T47D (human breast epithelial cell line)
T1 sequence (P30988 25-474): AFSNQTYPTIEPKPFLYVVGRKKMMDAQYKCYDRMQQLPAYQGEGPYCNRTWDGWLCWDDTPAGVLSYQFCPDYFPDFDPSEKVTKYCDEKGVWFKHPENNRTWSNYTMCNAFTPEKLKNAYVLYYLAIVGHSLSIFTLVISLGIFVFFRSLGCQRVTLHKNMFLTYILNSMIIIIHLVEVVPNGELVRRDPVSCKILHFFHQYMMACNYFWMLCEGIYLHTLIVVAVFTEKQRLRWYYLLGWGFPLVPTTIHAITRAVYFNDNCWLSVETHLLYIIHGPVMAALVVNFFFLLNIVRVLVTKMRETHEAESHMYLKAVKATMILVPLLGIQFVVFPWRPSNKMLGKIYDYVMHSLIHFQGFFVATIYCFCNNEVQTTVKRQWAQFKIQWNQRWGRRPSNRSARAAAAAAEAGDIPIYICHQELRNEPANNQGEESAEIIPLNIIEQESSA
Protocol: sCT analogs at various concentrations were tested in a T47D (human breast epithelial cell line) bioassay. This cell line is known to have the following receptors: calcitonin, androgen, progesterone, glucocrticoid, prolactin and estrogen. The results are presented in FIG. 11 as % cAMP binding relative to sCT which was set at 100% cAMP binding at a concentration of 1000 pg/mL.

[5] = Example 7: oral glucose tolerance test in Zucker Diabetic Fatty rats; format: in vivo, rat; details: ZDF rats; metformin 400 mg/kg/day oral, UGP302 5 μg/kg/day s.c.
Protocol: as §1, §2

CTX-I = assay: Example 6: serum CTX-I (RatLaps ELISA), bone resorption in DIO rats; format: in vivo, rat; details: 1 mg/kg p.o. with 150 mg/kg 5-CNAC, 2 hours after treatment, vs sCT
Protocol: The effect of sCT/calcitonin mimetic on bone and cartilage loss was studied in DIO rats. The animals were dosed as described in Table 6 below, and 2 hours after treatment blood sampling was done by heated tail venous puncture.
Serum CTX-I levels, as an indication of bone resorption, were measured using the RatLaps™ ELISA, and serum CTX-II levels, as an indication of cartilage degradation, were measured using the Serum PC Cartilaps™ ELISA.

| Substance | glucose iAUC during OGTT [1] | insulin tolerance (ITT) [2] | fasting blood glucose (FPG) [3] | non-fasted blood glucose (PPG) [3] | % cAMP binding relative to sCT [4] | glucose tolerance (OGTT) [5] | bone resorption (serum CTX-I levels) (CTX-I) |
| --- | --- | --- | --- | --- | --- | --- | --- |
| salmon calcitonin (CSNLSTCVLGKLSQELHKLQTYPRTNTGSGTP-NH2; disulfide 1-7; ends not checked) [sCT, reference compound] | significantly reduced glucose iAUC | – | – | – | – | – | – |
| Ac-CSNLSTCVLGKLSQELHKLQTYPRTDVGANAP-NH2 (Ac-CSNLSTCVLGKLSQELHKLQTYPRTDVGANAP-NH2; ends and bridges not checked) [UGP302, calcitonin mimetic] | – | individually improve | pronounced reduction throughout the study | pronounced reduction throughout the study | highest level of binding of all the tested compounds | individually improve | stronger effect in reduction |
